According to PubChem BioAssay AID179 (DTP/NCI, 2004):
The source made the active and inactive calls.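 Rule for the calls: active = compounds giving half or more protection of infected cells from virus-caused growth loss, again on retest; inactive = the rest.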

Test system: CEM cells HIV-1 protection, formazan growth assay
Assay: NCI AIDS Antiviral Assay
Details: for IC50: measured here: growth of uninfected CEM cells
How it was run: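 Soluble formazan readout of cell growth; CEM cells ± HIV-1; 5 drug concs. ≥50% protection → retest; ≥50% again = moderately active; reproducible 100% = confirmed active.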

Row | SMILES | EC50 [µM] | IC50 [µM] | outcome
1 | O=C(O)C1=C(C(=O)Nc2ccccc2)C2C=CC1C2 (stereo unspecified) | > 977 | 214 | 
2 | O=C(CNC(=O)c1ccc(Cl)cc1)NO | > 200 | > 200 | 
3 | C/C=C/C(=O)Oc1cccc2cccnc12 | > 251 | 1.51 | 
4 | OCCNCCN=C1CCC(=NCCNCCO)CC1 | > 200 | 32.4 | 
5 | O=C(Cc1ccccc1)NCCCN(CCCCN(CCCNC(=O)Cc1ccccc1)C(=O)OCc1ccccc1)C(=O)OCc1ccccc1 |  |  | inactive
6 | O=C(NC1=C(Cl)C(=O)c2ccccc2C1=O)C(=O)C(C(=O)c1ccc2ccccc2c1)C1OC(=O)c2ccccc21 (stereo unspecified) | > 45.7 | 11.5 | 
7 | O=C1OCCCCCCOC(=O)c2ccccc2SSc2ccccc21 | > 200 | > 200 | 
8 | CCOC(=O)NC(=O)c1cn(CCOC(=O)NCCCCCCNC(=O)OCCn2cc(C(=O)NC(=O)OCC)c(=O)[nH]c2=O)c(=O)[nH]c1=O |  |  | inactive
9 | O=C1CS(=O)(=O)C(c2ccc(Cl)cc2)N1N1C(=O)CS(=O)(=O)C1c1ccc(Cl)cc1 (stereo unspecified) | > 200 | 5.75 | 
10 | CCCCCC1=CC2C(=O)NC(=O)NC12 (stereo unspecified) | > 47.9 | > 47.9 | 
11 | N#C/C(=C\c1ccc(O)cc1)c1ccc([N+](=O)[O-])cc1 | > 200 | 174 | 
12 | CN(C)C(=S)/N=c1\ssc(=S)n1-c1ccccc1 |  |  | inactive
13 | CC1(C)OC(C(C)(C)O)C(C(C)(C)O)O1 (stereo unspecified) | > 200 | > 200 | 
14 | CCSC(=O)OCn1ncc2cc([N+](=O)[O-])ccc21 | > 200 | 95.5 | 
15 | CCN(CC)c1ncnc2c1ncn2CCNC(CO)(CO)CO | > 200 | > 200 | 
16 | ON1CCc2c([nH]c3ccccc23)C1c1ccccc1Br (stereo unspecified) |  |  | inactive
17 | COC(=O)/C=C/CCC#Cc1ccccc1C#CCC/C=C/C(=O)OC | > 200 | 2.82 | 
18 | CC(=O)Oc1cc(Cl)c(C)c2c1[C@H]1CC[C@]3(C)[C@@H](OC(C)=O)CC[C@H]3[C@@H]1CC2 | > 126 | > 126 | 
19 | Cc1csc([C@H]2CCC3[C@@H]4CC=C5C[C@@H](OC(=O)CCC(=O)O)CC[C@]5(C)C4CC[C@@]32C)n1 (stereo partly specified) | > 52.5 | 33.1 | 
20 | O=C(CCN(C(=O)O)S(=O)(=O)c1ccc(NC(=O)c2ccccc2)cc1)NC1CCCCC1 | > 525 | > 525 | 
21 | N#CCc1nc(-c2cc3c(ccc4ccccc43)oc2=O)cs1 | > 200 | 178 | 
22 | CC(NC(=O)C(N)CC(=O)O)NC(=O)N1CCOCC1 (stereo unspecified) | > 200 | > 200 | 

Row | SMILES | EC50 [µM] | IC50 [µM] | outcome
23 | c1ccc([P+](Cc2cccc3c2Cc2ccccc2-3)(c2ccccc2)c2ccccc2)cc1 | > 200 | 0.891 | 
24 | O=C(C=Nc1ccccc1C(=O)[O-])c1cccs1.O=C(C=Nc1ccccc1C(=O)[O-])c1cccs1.[Co+2] |  |  | inactive
25 | CC1=C(C(=O)Nc2ccccc2)C(c2ccc(C)o2)C(C#N)=C(SCc2ccccc2)N1 (stereo unspecified) | > 200 | 24 | 
26 | CCc1ccccc1NC(=O)CCc1nc(=S)[nH][nH]1 | > 912 | > 912 | 
27 | CC(=O)c1cc([N+](=O)[O-])ccc1OCC(=O)O |  |  | inactive
28 | CC(=O)ON1C(c2ccc([N+](=O)[O-])cc2)OCC2OC(n3cc(C)c(=O)[nH]c3=O)C[C@H]21 (stereo partly specified) | > 200 | > 200 | 
29 | O=C1/C(=C\c2ccc(Cl)cc2Cl)Sc2scc(-c3ccc(O)c(O)c3)[n+]21 | > 200 | 6.31 | 
30 | COC1/C=C/OC2(C)Oc3c(C)c(O)c4c(O)c(c(/C=N/N5CC(C)(C)N(Cc6ccccc6)CC5(C)C)c(O)c4c3C2=O)NC(=O)C(C)=C/C=C/C(C)C(O)C(C)C(O)C(C)C(OC(C)=O)C1C (stereo unspecified) | > 27.5 | 3.31 | 
31 | O=C(O)/C(Cl)=C(\Cl)C(=O)Nc1ccc(Cl)c(Cl)c1Cl |  |  | inactive
32 | CC(C)(C)[Si](C)(C)OCC1OC(n2ccc(=O)[nH]c2=O)C(O[Si](C)(C)C(C)(C)C)[C@]12O[C@@H]2CO (stereo partly specified) | > 200 | 13.2 | 
33 | COc1cccc(/C=C(\C#N)C(=O)c2ccccc2)c1 | > 97.7 | > 97.7 | 
34 | NS(=O)(=O)c1ccc(NNc2c3ccccc3nc3c(C(=O)Nc4ccc(S(=O)(=O)Nc5ncccn5)cc4)cccc23)cc1 | > 50.1 | 26.9 | 
35 | O=C1CC2c3[nH]c4ccccc4c3CCN2C2=C1CCCC2 (stereo unspecified) | > 200 | 10.2 | 
36 | CCS(=O)(=O)[C@@]1(C#N)CC[C@]1(C#N)S(=O)(=O)CC | 646 | 871 | 
37 | CCOC(=O)/C(C#N)=C/c1cccc(C)c1 | > 120 | > 120 | 
38 | O=C1c2cc3ccccc3cc2C2(c3ccc(Cl)cc3)NCCN12 (stereo unspecified) | > 200 | 32.4 | 
39 | CCCCCCCCCCCCCCCCCCN1C(=O)c2ccccc2[Se]1=O (stereo unspecified) | > 0.813 | > 0.813 | 
40 | COC(=O)C(C(=O)C(=O)Nc1ccc(Br)cc1)c1nc2ccc(Cl)cc2[nH]c1=O (stereo unspecified) | > 75.9 | 4.07 | 
41 | COc1cc(/C=C(\C#N)C(=O)c2ccccc2)ccc1O | > 646 | 490 | 
42 | [CH3][Sn]([CH3])([CH3])[c]1cccc2ccccc12 |  |  | inactive
43 | [Cu+2].c1nnc(N2CNCCNCN(c3nnc[n-]3)CNCCNC2)[n-]1 | > 200 | > 200 | 
44 | Nc1c(CCc2ccccn2)ccc2ccccc12 | > 200 | 166 | 

Row | SMILES | EC50 [µM] | IC50 [µM] | outcome
45 | O=C(O)C1C(c2ccccc2)C=CC(c2ccccc2)C1C(=O)O (stereo unspecified) |  |  | inactive
46 | CCC(=O)c1c(NOC2OC(COC(C)=O)C(OC(C)=O)C(OC(C)=O)C2OC(C)=O)nc(OC)n(C)c1=O (stereo unspecified) | > 46.8 | > 46.8 | 
47 | C/C(=C/C(=O)O)CC/C=C(/C)C(=O)O | > 479 | > 479 | 
48 | COc1ccc(-c2cc(=O)c3c(O)cc(C)cc3o2)cc1OC | > 200 | > 200 | 
49 | O=C1c2cccc3cc([N+](=O)[O-])cc(c23)C(=O)N1C(Cc1ccccc1)c1ccccc1 (stereo unspecified) | > 200 | 105 | 
50 | CC(=O)C(=O)N1Cc2cc3ccccc3nc2C1 | > 708 | 257 | 
51 | CN(NC(=O)/C(=C/C=C/c1ccccc1)NC(=O)c1ccccc1)C1=C(Cl)C(=O)[N+](c2ccccc2)=CC1 | > 200 | 35.5 | 
52 | CCCN(C)C(=O)N(CC)S(=O)(=O)c1ccc(Cl)cc1 |  |  | inactive
53 | COc1cc(O)c2c(=O)c3c(C)cccc3n(C)c2c1 | > 200 | 72.4 | 
54 | Cn1c2c(c3nc(N)nc(N)c3c1=O)CCc1ccccc1-2 | > 200 | 12.9 | 
55 | CC(C)CC(C(N)=O)C(=O)NC(Cc1ccccc1)NC(=O)CNC(=O)OC(C)(C)C (stereo unspecified) | > 25.1 | > 25.1 | 
56 | CC(=O)O[C@]1(C(C)=O)CC[C@H]2[C@@H]3C=C(Cl)C4=CC(=O)CC[C@]4(C)[C@H]3CC[C@@]21C | > 200 | > 200 | 
57 | N#CCCN(CCC#N)c1ccc(/C=C2\N=C(COc3ccc(Cl)cc3Cl)OC2=O)cc1 | > 537 | 490 | 
58 | Cn1c2cc(O)cc(O)c2c(=O)c2c([N+](=O)[O-])cccc21 | > 141 | > 141 | 
59 | [N-]=[N+]=N/C1=C/CCCCC(=O)C1 |  |  | inactive
60 | C/C(=N\NC(=O)CC#N)C(CN1CCCCC1)C(c1ccccc1)c1c(O)c2ccccc2oc1=O (stereo unspecified) | > 70.8 | 40.7 | 
61 | O=C1CC2CCC(C1)S2 | > 200 | > 200 | 
62 | N#C/C(C(=O)Nc1ccc(Cl)cc1)=C(/N)N1CCOCC1 | > 200 | > 200 | 
63 | N#Cc1ccccc1NC(=O)C(=O)c1c(O)c2ccccc2oc1=O | > 741 | > 741 | 
64 | O=C1OC(=O)C2=C1CCc1ccccc12 |  |  | inactive
65 | O=C(O)CN1CCN(CC(=O)O)CCN(CC(=O)O)CC1 | > 100 | 1.82 | 
66 | COc1ccc2c(C)cc(N/N=C(\C)C=O)nc2c1 | > 200 | 4.07 | 

Row | SMILES | EC50 [µM] | IC50 [µM] | outcome
67 | N#Cc1c(C#N)c(-c2ccco2)n(-c2ccccc2)c1N | > 200 | > 200 | 
68 | Cc1cc2c(C(C)C)c(O)c(O)c(C=NCC3CCCN4CCCCC34)c2cc1-c1cc2c(C=NCC3CCCN4CCCCC34)c(O)c(O)c(C(C)C)c2cc1C (stereo unspecified) | 4.68 | 6.61 | 
69 | CN(C)c1ccc(/C=C/C(=O)[O-])cc1.CN(C)c1ccc(/C=C/C(=O)[O-])cc1.[Cu+2] | > 8.51 | > 8.51 | 
70 | O=C(CNC(c1ccccc1)(c1ccccc1)c1ccccc1)NC1CCCCC1NC(=O)CNC(c1ccccc1)(c1ccccc1)c1ccccc1 (stereo unspecified) | > 200 | > 200 | 
71 | CCOC(=O)C(C)c1nc2ccc(C(F)(F)F)cc2[nH]c1=O (stereo unspecified) | > 200 | 110 | 
72 | O=C(O)CSC(=S)CCCCCCCCCCC(=S)SCC(=O)O | > 120 | > 120 | 
73 | Cn1c(=O)nc2n(-c3cccc(Cl)c3)c3ccccc3nc-2c1=O |  |  | inactive
74 | O=C(CCCC(=O)NNC(=O)Nc1ccc(N=Nc2ccccc2)cc1)NNC(=O)Nc1ccc(N=Nc2ccccc2)cc1 | > 200 | > 200 | 
75 | COc1ccc2c(c1)C(=O)C1(C2)[C@H](c2ccccc2)C2C(=O)c3cc(OC)ccc3C2[C@H]1c1ccccc1 (stereo partly specified) | > 200 | 138 | 
76 | CCOC(=O)c1nc2ccccc2n(CC)c1=O | > 200 | 79.4 | 
77 | C=C1CN(Cc2ccccc2)[C@@H]2CCCCC[C@H](C#N)[C@H]12 | > 200 | 123 | 
78 | CC(=O)C1(C)CC(C#N)(C#N)C(C#N)=C1N (stereo unspecified) | > 200 | > 200 | 
79 | CCOc1ccc(N=Nc2ccc3oc(=O)c(C(=O)Nc4ccc(OC)cc4)cc3c2)cc1 | > 8.51 | > 8.51 | 
80 | Nc1ccc2c(c1)C(=O)N(OS(=O)(=O)c1ccccc1)C2=O |  |  | inactive
81 | O=C1CCSC2=NCCN12 |  |  | inactive
82 | NC(=O)C12C(=O)NC(=O)C1(C(=O)O)C2C1CCCCC1 (stereo unspecified) |  |  | inactive
83 | COc1ccc2nc3cc(Cl)ccc3c(Nc3ccc(C(=O)O)c(O)c3)c2c1 | > 60.3 | > 60.3 | 
84 | O=C1c2ccccc2C(=O)c2sc(Nc3ccccc3C(F)(F)F)nc21 | > 200 | 11 | 
85 | NC(=S)Nc1[nH]c(=S)nc2c1SC1=N/C(=C\c3ccco3)C(=O)N12 | > 200 | 81.3 | 
86 | Cc1ccc(S(=O)(=O)N/N=C2/C3CC4CCC2C4C3)cc1 (stereo unspecified) | > 200 | > 200 | 
